# Measurements: ChEMBL document CHEMBL1201862, “PubChem BioAssay data set” (2004)
#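 Growth conditions: 96-well plates. Treatment: test compound, 48 hours, 5 concentrations. Analysis: linear interpolation between bracketing concentrations; unreached endpoints set to highest concentration. Abbreviation: GI50, concentration required for 50% inhibition of growth.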 The source made the active and inactive calls. No stated cut-off is given here; in the data, active = GI50 up to about 1.1 µM and inactive = higher.
# Columns and labels:
# Experiment in all cases: inhibition of tumour cell growth, NCI panel, 48 h
# HOP-18 = system: HOP-18
# HL-60 = system: HL-60
# SNB-75 = system: SNB-75
# DMS-114 = system: DMS-114
# XF498 = system: XF498
# SK-MEL-28 = system: SK-MEL-28
# NCI-H522 = system: NCI-H522
# SF-268 = system: SF-268
# SF-539 = system: SF-539
# U-251 = system: U-251
# HCC 2998 = system: HCC 2998
# KM12 = system: KM12
# RXF 393 = system: RXF 393
# NCI-H460 = system: NCI-H460
# SN12C = system: SN12C
# HT-29 = system: HT-29
# SK-MEL-5 = system: SK-MEL-5
# SK-MEL-2 = system: SK-MEL-2
# OVCAR-4 = system: OVCAR-4
# OVCAR-5 = system: OVCAR-5
# TK-10 = system: TK-10
# OVCAR-3 = system: OVCAR-3
# SNB-78 = system: SNB-78
# A498 = system: A498
# OVCAR-8 = system: OVCAR-8
# HCT-116 = system: HCT-116
# SNB-19 = system: SNB-19
# M14 = system: M14
# DMS-273 = system: DMS-273
# UACC-62 = system: UACC-62
# DLD-1 = system: DLD-1
# UACC-257 = system: UACC-257
# ACHN = system: ACHN
# RPMI-8226 = system: RPMI-8226
# NCI-H23 = system: NCI-H23
# MOLT-4 = system: MOLT-4
# HOP-92 = system: HOP-92
# LXFL 529 = system: LXFL 529
# CCRF-CEM = system: CCRF-CEM
# COLO 205 = system: COLO 205
# M19-MEL = system: M19-MEL
# NCI-H226 = system: NCI-H226
# A549 = system: A549
# SK-OV-3 = system: SK-OV-3
# HCT-15 = system: HCT-15
# EKVX = system: EKVX
# HOP-62 = system: HOP-62
# Malme-3M = system: Malme-3M
# IGROV-1 = system: IGROV-1
# LOX IMVI = system: LOX IMVI
# SR = system: SR
# CAKI-1 = system: CAKI-1
# UO-31 = system: UO-31
# RXF 631 = system: RXF 631
# K562 = system: K562
# KM-20L2 = system: KM-20L2
# 786-0 = system: 786-0
# SF-295 = system: SF-295
# SW-620 = system: SW-620
smiles,measurement,setting,value
CCOC(=O)C1([Se]c2ccccc2)CCCC1=O (configuration not stated),GI50,HOP-18,20.1 µM (inactive)
same,GI50,HL-60,4.78 µM (inactive)
same,GI50,SNB-75,23.6 µM (inactive)
same,GI50,DMS-114,3.83 µM (inactive)
same,GI50,XF498,16.1 µM (inactive)
same,GI50,SK-MEL-28,18.9 µM (inactive)
same,GI50,NCI-H522,3.6 µM (inactive)
same,GI50,SF-268,11.7 µM (inactive)
same,GI50,SF-539,19.6 µM (inactive)
same,GI50,U-251,9.95 µM (inactive)
same,GI50,HCC 2998,25.9 µM (inactive)
same,GI50,KM12,30.9 µM (inactive)
same,GI50,RXF 393,7.82 µM (inactive)
same,GI50,NCI-H460,27.9 µM (inactive)
same,GI50,SN12C,15 µM (inactive)
same,GI50,HT-29,37.8 µM (inactive)
same,GI50,SK-MEL-5,20.1 µM (inactive)
same,GI50,SK-MEL-2,32.8 µM (inactive)
same,GI50,OVCAR-4,18.8 µM (inactive)
same,GI50,OVCAR-5,40.8 µM (inactive)
same,GI50,TK-10,77.6 µM (inactive)
same,GI50,OVCAR-3,26.6 µM (inactive)
same,GI50,SNB-78,24 µM (inactive)
same,GI50,A498,> 100 µM (inactive)
same,GI50,OVCAR-8,16.8 µM (inactive)
same,GI50,HCT-116,15.5 µM (inactive)
same,GI50,SNB-19,44.1 µM (inactive)
same,GI50,M14,21.3 µM (inactive)
same,GI50,DMS-273,14.4 µM (inactive)
same,GI50,UACC-62,14.7 µM (inactive)
same,GI50,DLD-1,16.6 µM (inactive)
same,GI50,UACC-257,43.7 µM (inactive)
same,GI50,ACHN,20.3 µM (inactive)
same,GI50,RPMI-8226,23.3 µM (inactive)
same,GI50,NCI-H23,17.4 µM (inactive)
same,GI50,MOLT-4,22.3 µM (inactive)
same,GI50,HOP-92,25.5 µM (inactive)
same,GI50,LXFL 529,14.8 µM (inactive)
same,GI50,CCRF-CEM,15.2 µM (inactive)
same,GI50,COLO 205,16 µM (inactive)
same,GI50,M19-MEL,19.7 µM (inactive)
same,GI50,NCI-H226,29 µM (inactive)
same,GI50,A549,32.7 µM (inactive)
same,GI50,SK-OV-3,> 100 µM (inactive)
same,GI50,HCT-15,13.2 µM
same,GI50,EKVX,23.6 µM (inactive)
same,GI50,HOP-62,96.8 µM (inactive)
same,GI50,Malme-3M,32.6 µM (inactive)
same,GI50,IGROV-1,18.6 µM (inactive)
same,GI50,LOX IMVI,13.1 µM (inactive)
same,GI50,SR,14 µM (inactive)
same,GI50,CAKI-1,44.5 µM (inactive)
same,GI50,UO-31,23.6 µM (inactive)
same,GI50,RXF 631,66.5 µM (inactive)
same,GI50,K562,33.5 µM (inactive)
same,GI50,KM-20L2,36.6 µM (inactive)
same,GI50,786-0,14.2 µM (inactive)
same,GI50,SF-295,31.8 µM (inactive)
COC(=O)CC(NC(=O)OCc1ccccc1)C(C(C)=O)C(=O)OCc1ccccc1 (configuration not stated),GI50,HOP-18,> 31.6 µM (inactive)
same,GI50,HL-60,> 31.6 µM (inactive)
same,GI50,SNB-75,20.2 µM (inactive)
same,GI50,DMS-114,> 31.6 µM (inactive)
same,GI50,XF498,> 10 µM (inactive)
same,GI50,SK-MEL-28,> 31.6 µM (inactive)
same,GI50,NCI-H522,> 31.6 µM (inactive)
same,GI50,SF-268,> 31.6 µM (inactive)
same,GI50,SF-539,> 31.6 µM (inactive)
same,GI50,U-251,> 31.6 µM (inactive)
same,GI50,HCC 2998,> 10 µM (inactive)
same,GI50,KM12,> 31.6 µM (inactive)
same,GI50,RXF 393,> 10 µM (inactive)
same,GI50,NCI-H460,> 31.6 µM (inactive)
same,GI50,SN12C,> 31.6 µM (inactive)
same,GI50,HT-29,> 10 µM (inactive)
same,GI50,SK-MEL-5,> 31.6 µM (inactive)
same,GI50,SK-MEL-2,> 10 µM (inactive)
same,GI50,OVCAR-4,> 10 µM (inactive)
same,GI50,OVCAR-5,> 100 µM (inactive)
same,GI50,TK-10,> 31.6 µM (inactive)
same,GI50,OVCAR-3,> 31.6 µM (inactive)
same,GI50,SNB-78,> 31.6 µM (inactive)
same,GI50,A498,> 31.6 µM (inactive)
same,GI50,OVCAR-8,> 31.6 µM (inactive)
same,GI50,HCT-116,> 31.6 µM (inactive)
same,GI50,SNB-19,> 10 µM (inactive)
same,GI50,M14,> 31.6 µM (inactive)
same,GI50,DMS-273,> 31.6 µM (inactive)
same,GI50,UACC-62,> 31.6 µM (inactive)
same,GI50,DLD-1,> 31.6 µM (inactive)
same,GI50,UACC-257,> 31.6 µM (inactive)
same,GI50,ACHN,> 31.6 µM (inactive)
same,GI50,RPMI-8226,> 31.6 µM (inactive)
same,GI50,NCI-H23,> 31.6 µM (inactive)
same,GI50,MOLT-4,> 31.6 µM (inactive)
same,GI50,HOP-92,> 31.6 µM (inactive)
same,GI50,LXFL 529,5.48 µM (inactive)
same,GI50,CCRF-CEM,> 31.6 µM (inactive)
same,GI50,COLO 205,> 31.6 µM (inactive)
same,GI50,M19-MEL,> 31.6 µM (inactive)
same,GI50,NCI-H226,> 10 µM (inactive)
same,GI50,A549,> 31.6 µM (inactive)
same,GI50,SK-OV-3,> 31.6 µM (inactive)
same,GI50,HCT-15,> 31.6 µM
same,GI50,EKVX,> 31.6 µM (inactive)
same,GI50,HOP-62,> 10 µM (inactive)
same,GI50,Malme-3M,> 10 µM (inactive)
same,GI50,IGROV-1,> 31.6 µM (inactive)
same,GI50,LOX IMVI,> 100 µM (inactive)
same,GI50,SR,> 100 µM (inactive)
same,GI50,CAKI-1,> 31.6 µM (inactive)
same,GI50,UO-31,> 31.6 µM (inactive)
same,GI50,RXF 631,> 10 µM (inactive)
same,GI50,K562,> 31.6 µM (inactive)
same,GI50,KM-20L2,> 31.6 µM (inactive)
same,GI50,SW-620,> 31.6 µM (inactive)
same,GI50,786-0,> 31.6 µM (inactive)
same,GI50,SF-295,> 100 µM (inactive)
